22 compounds from patent US6664250B2, “Lactam derivatives as antiarrhythmic agents” (Bristol-Myers Squibb Co., priority 1998, dated 2003) can be followed below.

Where a name gives a salt, the structure may show the parent alone.

Broadly, the melting point is the temperature of the solid-liquid transition. On to `OCC1c2ccc(OCc3ccccc3)cc2CCN1CCN1CCC(c2ccccc2)CC1` (stereo not shown) (as salt: hydrochloride), for which the melting point is 205 to 210 °C (dec.).
To `COc1ccc2c(c1)CCN(CCN1CCC(c3ccccc3)CC1)C2=O` (as salt: hydrochloride) [Example 1, 3,4-Dihydro-6-methoxy-2-[2-(4-phenyl-1-piperidinyl)ethyl]-1(2H)-isoquinolinone, Monohydrochloride] belongs 232 to 235 °C; to `COc1ccc2c(c1)CCC(C)(CN1CCC(c3ccccc3)CC1)NC2=O` (stereo not shown) [Example 5, 2,3,4,5-Tetrahydro-7-methoxy-3-methyl-3-[(4-phenyl-1-piperidinyl)methyl]-1H-2-benzazepin-1-one], 127 to 128 °C; to `COc1ccc2c(c1)CC(C)(CN1CCC(c3ccccc3)CC1)NC2=O` (stereo not shown) [Example 6], 93 to 95 °C.
Consider `CCOc1ccc2c(c1)C(=O)NC(CC(C)(C)C)CC2` (stereo not shown) [Example 21], for which the melting point lay within 159 to 160 °C.
Next, `CCCOc1ccc2c(c1)C(=O)NC(CC(C)(C)C)CC2` (stereo not shown) [Example 22]: 132 to 133 °C; `CC(C)(C)CC1CCc2ccc(OCc3ccccc3)cc2C(=O)N1` (stereo not shown) [Example 23]: 142 to 143 °C; `CCCOc1ccc2c(c1)NC(=O)C(CC(C)(C)C)CC2` (stereo not shown) [Example 24]: 117 to 119 °C.
Next, `CC(C)(C)CC1Cc2ccc(OCc3ccccc3)cc2C(=O)N1` (stereo not shown) [Example 25]: 139 to 140 °C; `CC(C)(C)CC1CCc2ccc(OCc3ccccc3)cc2NC1=O` (stereo not shown) [Example 26]: 150 to 151 °C; `CC(C)COc1ccc2c(c1)C(=O)NC(CC(C)(C)C)CC2` (stereo not shown) [Example 27]: 148 to 149 °C.
To `CCOc1ccc2c(c1)NC(=O)C(CC(C)(C)C)CC2` (stereo not shown) [Example 28] belongs 136 to 138 °C.
For the compound `CC(C)Oc1ccc2c(c1)C(=O)NC(CC(C)(C)C)CC2` (stereo not shown) [Example 29], the melting point lay in the range of 113 to 114 °C.
With `CCOc1ccc2c(c1)C(=O)NC(CC(C)(C)C)C2` (stereo not shown) [Example 30], the melting point lay within 129 to 130 °C.
To `CCCOc1ccc2c(c1)C(=O)NC(CC(C)(C)C)C2` (stereo not shown) [Example 31] belongs 88 to 90 °C; to `CC(C)COc1ccc2c(c1)C(=O)NC(CC(C)(C)C)C2` (stereo not shown) [Example 32], 142 to 143 °C; to `CC(C)COc1ccc2c(c1)NC(=O)C(CC(C)(C)C)CC2` (stereo not shown) [Example 33], 139 to 140 °C.
The compound `CC(C)Oc1ccc2c(c1)NC(=O)C(CC(C)(C)C)CC2` (stereo not shown) [Example 34] showed a melting point of 132 to 134 °C.
Regarding `CCCOc1ccc2c(c1)NC(=O)C(CC(C)(C)C)C2` (stereo not shown) [Example 36], the melting point is 109 to 110 °C.
To `CC(C)Oc1ccc2c(c1)C(=O)NC(CC(C)(C)C)C2` (stereo not shown) [Example 37] belongs 135 to 136 °C; to `COc1ccc2c(c1)NC(=O)C(CC(C)(C)C)C2` (stereo not shown) [Example 37], 118 to 119 °C; to `COc1ccc2c(c1)C(=O)NC(CC(C)(C)C)C2` (stereo not shown) [Example 38], 113 to 114 °C.
